Data reported in publication PMC6302903, “Protein and Chemical Determinants of BL-1249 Action and Selectivity for K2P Channels” (ACS Chemical Neuroscience, 2018).

Tests used:
Format in all cases: cell-based
Settings in all cases: Xenopus oocytes
TREK-1/AAK M4-C = molecular target: T1, TREK-1/AAK M4-C (Mus musculus, UniProt O88454+P97438); assay: TEVC of chimera TREK-1/AAK M4-C
T1 construct: Y272 (TREK-1/AAK M4-C); expressed in transfected cells; host or cells: Xenopus laevis oocytes, mRNA injected; chimera built by Gibson assembly
T1 sequence (P97438+O88454 with tags, fused parts or gaps P97438:V273L/P97438:V280F/P97438:A287S/P97438:S290T/P97438:M291T/P97438:D294N): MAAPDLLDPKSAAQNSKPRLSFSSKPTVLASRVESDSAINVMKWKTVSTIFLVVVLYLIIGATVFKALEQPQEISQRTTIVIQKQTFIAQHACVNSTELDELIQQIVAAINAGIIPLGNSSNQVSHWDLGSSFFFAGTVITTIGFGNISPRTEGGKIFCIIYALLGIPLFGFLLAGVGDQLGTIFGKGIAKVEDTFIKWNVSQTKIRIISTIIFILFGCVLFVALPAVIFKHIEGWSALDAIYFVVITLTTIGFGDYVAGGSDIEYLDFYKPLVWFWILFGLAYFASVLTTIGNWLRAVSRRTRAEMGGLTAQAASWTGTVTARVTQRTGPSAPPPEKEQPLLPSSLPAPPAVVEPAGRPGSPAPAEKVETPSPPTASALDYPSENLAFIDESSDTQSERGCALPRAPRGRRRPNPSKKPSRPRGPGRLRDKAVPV

TREK-1/AAK M2-C = TREK-1/AAK M2-C (Mus musculus, UniProt O88454+P97438); assay: TEVC of chimera TREK-1/AAK M2-C
TRAAK/EK-1 M3-C = molecular target: T2, TRAAK/EK-1 M3-C (Mus musculus, UniProt O88454+P97438, A173T/A231F/D223G/E202D/F190V/F242V/G166T/G224S/G226I/H162N/I179F/I208V/K200A/L167K/L171I/L175I/L177I/L182V/L186A/L235V/M195I/N228Y/N256D/P164S/P165Q/P221A/P230D/Q227E/Q233K/S170I/S193K/S197G/S229L/S249A/T187L/T189A/T225D/T252S/T253M/V168I/V174I/V191I/V209I/V214I/Y194H); assay: TEVC of chimera TRAAK/EK-1 M3-C
T2 construct: Trp161 (TRAAK/EK-1 M3-C); expressed in transfected cells; host or cells: Xenopus laevis oocytes, mRNA injected; chimera built by Gibson assembly

K2P2.1(TREK-1) F172M = molecular target: T3, K2P2.1(TREK-1) F172M (Mus musculus, UniProt P97438, F187M); assay: TEVC of K2P2.1(TREK-1) mutant F172M
T3 construct: expressed in transfected cells; host or cells: Xenopus laevis oocytes, mRNA injected
Text: To identify K2P2.1(TREK-1) M2 residues that might participate in the BL-1249 response, we mapped the residues that differ between K2P2.1(TREK-1) and K2P4.1(TRAAK) in the context of the K2P2.1(TREK-1) structure[6] (Figure 5B,C). Two K2P2.1(TREK-1) M2 residues stood out as candidates that could explain the reduction in BL-1249 response when the entire M2 helix was replaced with M2 from K2P4.1(TRAAK). One is at the M2/M4 interface and occurs between Phe172 and Arg297 via a π–cation interaction that would be lost when Phe172 is replaced with the equivalent K2P4.1(TRAAK) residue Met134 (Figure 5C, right inset). […] To assess the importance of these interactions in the context of BL-1249 response, we made the K2P2.1(TREK-1) mutants F172M and F185L and measured their responses to BL-1249 (Figure 5D). […]
Xenopus laevis oocytes were harvested in accordance with UCSF IACUC protocol AN129690 and digested in calcium-free ND-96 (96 mM NaCl, 2 mM KCl, 3.8 mM MgCl2) immediately following harvest, as previously described.[6],[10] […] Defolliculated stage V–VI oocytes were injected with 0.2–6.0 ng of mRNA in 50 nL, and currents were recorded 24–48 h after injection. mRNA was synthesized from plasmid DNA using mMessage mMachine Kit (T7 promoter, Ambion, Life Technologies) and purified using RNEasy Kit (Qiagen). […]

T2 sequence (O88454+P97438 fused with the stated changes): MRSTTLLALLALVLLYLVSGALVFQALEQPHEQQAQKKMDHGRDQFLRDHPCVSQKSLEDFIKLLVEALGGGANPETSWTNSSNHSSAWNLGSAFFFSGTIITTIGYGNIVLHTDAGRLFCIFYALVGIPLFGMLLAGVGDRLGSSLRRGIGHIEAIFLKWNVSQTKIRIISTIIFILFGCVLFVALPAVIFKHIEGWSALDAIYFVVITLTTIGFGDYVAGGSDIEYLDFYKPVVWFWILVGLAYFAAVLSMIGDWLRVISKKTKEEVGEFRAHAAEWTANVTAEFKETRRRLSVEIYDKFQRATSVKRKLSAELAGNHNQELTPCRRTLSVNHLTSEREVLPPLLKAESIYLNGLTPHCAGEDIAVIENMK
Chain of TREK-1/AAK M2-C (P97438 16-167): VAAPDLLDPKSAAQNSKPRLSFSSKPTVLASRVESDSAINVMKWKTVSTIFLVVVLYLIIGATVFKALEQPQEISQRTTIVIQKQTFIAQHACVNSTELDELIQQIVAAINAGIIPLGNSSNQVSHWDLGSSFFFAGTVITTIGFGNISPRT
Chain of TREK-1/AAK M2-C (O88454 115-398): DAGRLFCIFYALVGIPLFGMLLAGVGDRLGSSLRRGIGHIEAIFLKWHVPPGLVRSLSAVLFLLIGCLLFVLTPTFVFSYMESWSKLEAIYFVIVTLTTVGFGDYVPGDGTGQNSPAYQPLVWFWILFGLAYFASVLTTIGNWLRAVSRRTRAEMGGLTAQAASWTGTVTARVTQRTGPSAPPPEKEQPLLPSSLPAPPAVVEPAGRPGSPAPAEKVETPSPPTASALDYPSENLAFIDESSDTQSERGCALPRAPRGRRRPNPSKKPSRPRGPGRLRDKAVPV
T3 sequence (P97438 1-411 isoform P97438-2 F172M): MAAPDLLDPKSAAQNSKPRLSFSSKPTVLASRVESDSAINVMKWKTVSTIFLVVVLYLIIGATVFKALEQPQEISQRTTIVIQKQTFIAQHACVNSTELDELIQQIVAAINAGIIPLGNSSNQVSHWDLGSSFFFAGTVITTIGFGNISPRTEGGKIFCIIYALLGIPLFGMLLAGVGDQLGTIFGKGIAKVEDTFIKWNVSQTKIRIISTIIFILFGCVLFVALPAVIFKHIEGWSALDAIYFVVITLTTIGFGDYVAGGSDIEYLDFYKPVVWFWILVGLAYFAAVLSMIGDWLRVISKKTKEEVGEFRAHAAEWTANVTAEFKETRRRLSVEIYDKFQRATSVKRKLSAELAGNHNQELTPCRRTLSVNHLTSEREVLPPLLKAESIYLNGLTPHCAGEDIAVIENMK

EC50 (K2P2.1(TREK-1) F172M) [µM] | SMILES | EC50 (TREK-1/AAK M4-C) [µM] | EC50 (TREK-1/AAK M2-C) [µM] | EC50 (TRAAK/EK-1 M3-C) [µM]
 | CS(=O)(=O)Nc1ccc(C(=O)NCc2ccc(Cl)cc2Cl)cc1 [ML335] | 2 ± 0.6 | > 100 | 13 ± 2
15 ± 2 | c1ccc(-c2nnn[nH]2)c(Nc2cccc3c2CCCC3)c1 [BL-1249, (5,6,7,8-tetrahydro-naphthalen-1-yl)-[2-(1H-tetrazol-5-yl)-phenyl]-amine] | 19 ± 3 |  | 18 ± 2
